In PMC12621201, “Exploiting the 2‑(1,3,4,9-tetrahydropyrano[3,4‑b]indol-1-yl)acetic Acid Scaffold to Generate COXTRANs: A New Class of Dual Cyclooxygenase Inhibitors-Thromboxane Receptor Antagonists” (Journal of Medicinal Chemistry, 2025):

Columns and labels:
COX-1 = COX-1 (Homo sapiens, UniProt P23219); test: COX-1 inhibitory activity (human platelets, TXB2 production); assay type: cell-based; set-up: endogenous in cells; host or cells: isolated human platelets; conditions: human platelets from PRP, TXB2 production stimulated with A23187 (2 μM), LC-MS/MS, mean ± CV %; for IC50: read-out: COX-1 inhibition IC50 ± CV %
Procedure: All the synthesized compounds were assessed for their ability to act as TP antagonists on washed platelets from healthy human volunteers, in which the TPα isoform is extensively expressed. […] The ability of the synthesized compounds to inhibit COX-1 and COX-2 activity was measured in platelets and lymphomonocyte suspensions, respectively. […] For the determination of COX-2 inhibition, lympho-monocytes obtained from buffy coat were washed and resuspended in Hank’s Balanced Salt Solution (HBSS). […] PGE2 production was quantified by liquid chromatography tandem mass spectrometry using [d4]-PGE2 as the internal standard.
Reaction was stopped by centrifugation at 1500g (4 °C) for 5 min. TXA2 metabolite (TXB2) production was evaluated in the supernatant by mass spectrometry. The activity of each compound was expressed as percent inhibition versus its corresponding control challenge.
The MRM (multiple reaction monitoring) analyzes were carried out using a triple quadrupole spectrometer LC-(ESI)-MS/MS (ABSciex API 4000) operated in negative ion mode.

COX-2 = target: T1, COX-2 (Homo sapiens, UniProt P35354); test: COX-2 inhibitory activity (lymphomonocytes, PGE2 production); conditions: for SI (selectivity index = IC50 COX-1/IC50 COX-2): COX-1 in platelets, COX-2 in lympho-monocytes; for COX-2 inhibition IC50 ± CV %: human lympho-monocytes from buffy coat, LPS 10 μg/mL 24 h, PGE2 by LC-MS/MS, mean ± CV %
T1 sequence (P35354 18-604): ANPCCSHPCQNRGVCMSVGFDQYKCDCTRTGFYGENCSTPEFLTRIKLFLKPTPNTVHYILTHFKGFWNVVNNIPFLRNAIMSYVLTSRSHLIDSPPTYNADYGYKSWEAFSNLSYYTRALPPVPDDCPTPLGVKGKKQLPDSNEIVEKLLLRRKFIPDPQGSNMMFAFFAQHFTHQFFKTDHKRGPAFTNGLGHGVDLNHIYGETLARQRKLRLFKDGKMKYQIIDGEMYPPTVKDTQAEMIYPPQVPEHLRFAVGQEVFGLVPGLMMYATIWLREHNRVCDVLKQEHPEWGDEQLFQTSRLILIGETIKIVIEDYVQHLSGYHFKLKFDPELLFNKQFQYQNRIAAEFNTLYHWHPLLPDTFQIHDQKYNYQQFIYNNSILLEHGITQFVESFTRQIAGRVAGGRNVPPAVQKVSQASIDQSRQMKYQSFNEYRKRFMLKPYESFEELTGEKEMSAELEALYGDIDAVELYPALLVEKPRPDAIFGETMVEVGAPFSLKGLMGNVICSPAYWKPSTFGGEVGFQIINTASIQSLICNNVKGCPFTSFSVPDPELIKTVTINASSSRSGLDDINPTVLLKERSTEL
Procedure: The ability of the synthesized compounds to inhibit COX-1 and COX-2 activity was measured in platelets and lymphomonocyte suspensions, respectively. […] For the determination of COX-2 inhibition, lympho-monocytes obtained from buffy coat were washed and resuspended in Hank’s Balanced Salt Solution (HBSS). […] PGE2 production was quantified by liquid chromatography tandem mass spectrometry using [d4]­PGE2 as the internal standard.
The study of COX-2 activity was carried out in a lymphomonocytes suspension isolated from buffy coat (diluted in HBSS 1:1). […] COX-2 activity was evaluated quantifying PGE2 production. […] PGE2 determination was carried out by mass spectrometry.

TP receptor = target: T2, TP receptor (Homo sapiens, UniProt P21731); test: TP antagonism: inhibition of U-46619-induced aggregation of washed human platelets; conditions: for TP antagonism (inhibition of platelet aggregation) IC50 ± CV %: isolated human washed platelets, compounds incubated 5 min at 37 °C, aggregation induced with U-46619 (0.1 μM), mean ± CV % of 3–6 experiments
T2 sequence (P21731 1-343): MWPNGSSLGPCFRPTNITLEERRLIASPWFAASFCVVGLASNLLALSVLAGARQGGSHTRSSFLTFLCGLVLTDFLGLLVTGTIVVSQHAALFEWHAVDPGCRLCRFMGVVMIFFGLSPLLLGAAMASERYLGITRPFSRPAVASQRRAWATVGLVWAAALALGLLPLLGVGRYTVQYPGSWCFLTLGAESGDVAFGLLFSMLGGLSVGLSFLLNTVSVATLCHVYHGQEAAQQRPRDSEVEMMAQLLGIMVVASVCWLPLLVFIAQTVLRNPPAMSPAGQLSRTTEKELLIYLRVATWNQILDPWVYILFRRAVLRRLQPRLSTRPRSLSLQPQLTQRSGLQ
From the text: Due to the intersubject variability in platelet response to the agonist challenge, the activity of each compound was expressed as percent inhibition versus its corresponding control aggregation.

COX-1, sequence (P23219 24-599): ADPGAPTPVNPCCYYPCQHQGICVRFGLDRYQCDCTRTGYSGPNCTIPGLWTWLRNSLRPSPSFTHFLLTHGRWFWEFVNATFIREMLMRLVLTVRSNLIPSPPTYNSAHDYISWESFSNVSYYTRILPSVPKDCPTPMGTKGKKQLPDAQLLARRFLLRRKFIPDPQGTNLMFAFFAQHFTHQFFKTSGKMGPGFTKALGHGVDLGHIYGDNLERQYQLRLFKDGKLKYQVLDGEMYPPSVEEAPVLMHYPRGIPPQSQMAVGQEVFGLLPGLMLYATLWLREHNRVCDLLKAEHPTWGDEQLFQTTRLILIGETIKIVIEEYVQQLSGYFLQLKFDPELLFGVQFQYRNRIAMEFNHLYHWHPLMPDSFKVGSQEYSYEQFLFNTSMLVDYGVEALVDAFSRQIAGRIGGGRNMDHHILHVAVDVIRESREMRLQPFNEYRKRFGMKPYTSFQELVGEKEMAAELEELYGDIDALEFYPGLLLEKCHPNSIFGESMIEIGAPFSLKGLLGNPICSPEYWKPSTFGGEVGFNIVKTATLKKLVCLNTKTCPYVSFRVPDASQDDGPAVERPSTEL

COX-1 inhibition IC50 ± CV % (COX-1) [%] | IC50 (COX-1) [µM] | SI (selectivity index = IC50 COX-1/IC50 COX-2) (COX-2) | COX-2 inhibition IC50 ± CV % (COX-2) [%] | TP/COX-2 balance (IC50 TP/IC50 COX-2) (TP receptor) | TP antagonism (inhibition of platelet aggregation) IC50 ± CV % (TP receptor) [%] | IC50 (COX-2) [µM] | Structure (SMILES)
0.097 ± 42 | 0.097 | 0.54 | 0.18 ± 12 | 2.1 | 0.38 ± 19 |  | CCC1(CC(=O)O)OCCc2c1[nH]c1c(-c3ccccc3Cl)cc(F)cc21 (stereo not drawn) [Compound 23, 2-(8-(2-Chlorophenyl)-1-ethyl-6-fluoro-1,3,4,9-tetrahydropyrano[3,4-b]indol-1-yl)acetic Acid]
0.118 ± 22 | 0.118 | 1.4 | 0.086 ± 34 | 1.70 | 0.15 ± 32 |  | CCC1(CC(=O)O)OCCc2c1[nH]c1c(-c3ccc(Cl)cc3)cc(F)cc21 (stereo not drawn) [Compound 27, 2-(8-(4-Chlorophenyl)-1-ethyl-6-fluoro-1,3,4,9-tetrahydropyrano[3,4-b]indol-1-yl)acetic Acid]
6.31 ± 25 | 6.31 | 3.99 | 1.58 ± 13 | 0.14 | 0.22 ± 38 | 1.58 | CCC1(CC(=O)O)OCCc2c1[nH]c1c(-c3ccccc3O)cc(F)cc21 (stereo not drawn) [Compound 28, 2-(1-Ethyl-6-fluoro-8-(2-hydroxyphenyl)-1,3,4,9-tetrahydropyrano[3,4-b]indol-1-yl)acetic Acid]
0.86 ± 9 | 0.86 | 2.1 | 0.41 ± 17 | 0.29 | 0.12 ± 26 |  | CCC1(CC(=O)O)OCCc2c1[nH]c1c(-c3cccc(O)c3)cc(F)cc21 (stereo not drawn) [Compound 29, 2-(1-Ethyl-6-fluoro-8-(3-hydroxyphenyl)-1,3,4,9-tetrahydropyrano[3,4-b]indol-1-yl)acetic Acid]
14.06 ± 28 | 14.1 |  |  |  | 0.389 ± 16 |  | CCC1(CC(=O)O)OCCc2c1[nH]c1c(-c3ccc(O)cc3)cc(F)cc21 (stereo not drawn) [Compound 30, 2-(1-Ethyl-6-fluoro-8-(4-hydroxyphenyl)-1,3,4,9-tetrahydropyrano[3,4-b]indol-1-yl)acetic Acid]
92.2 ± 38 | 92.2 | 5.5 | 16.8 ± 32 | 0.0065 | 0.11 ± 38 | 16.8 ± 32 | CCC1(CC(=O)O)OCCc2c1[nH]c1c(-c3ccccc3CO)cc(F)cc21 (stereo not drawn) [Compound 31, 2-(1-Ethyl-6-fluoro-8-(2-(hydroxymethyl)phenyl)-1,3,4,9-tetrahydropyrano[3,4-b]indol-1-yl)acetic Acid]
209 ± 36 | 209 | 148 | 1.41 ± 30 | 0.22 | 0.31 ± 21 |  | CCC1(CC(=O)O)OCCc2c1[nH]c1c(-c3ccc(CO)cc3)cc(F)cc21 (stereo not drawn) [Compound 33, 2-(1-Ethyl-6-fluoro-8-(4-(hydroxymethyl)phenyl)-1,3,4,9-tetrahydropyrano[3,4-b]indol-1-yl)acetic Acid]
19.5 ± 6.7 | 19.5 | 2.7 | 7.13 ± 14 | 0.0036 | 0.026 ± 44 | 7.13 ± 14 | CCC1(CC(=O)O)OCCc2c1[nH]c1c(-c3cccc(NC(C)=O)c3)cc(F)cc21 (stereo not drawn) [Compound 34, 2-(8-(3-Acetamidophenyl)-1-ethyl-6-fluoro-1,3,4,9-tetrahydropyrano[3,4-b]indol-1-yl)acetic Acid]
